Data published in patent publication US7150967B2, “Fluorescent tags for amino acid and nucleic acid analysis” (University of Medicine & Dentistry of New Jersey, priority 2002, dated 2006).

What was measured:
[1] = target: BSA (Bos taurus, UniProt P02769); assay: Detection of a protein on a 10% PAGE gel via formation of a fluorescent reaction product; design: species or system bovine; settings: BSA 150 μg, 1.5 nmol compound, 30 minutes at 37° C.
Description: In these experiments, BSA (150 μg) was reacted with the mercurimethyl-dihydropsoralen 3-cyanomercurio-H2DMP (1.5 nmol) for 30 minutes at 37° C. The products were then run on a 10% PAGE gel to separate any reaction product from unreacted psoralen. The fluorescent BSA-mercurimethyl-dihydropsoralen reaction product was […].

[2] = target: bovine serum albumin (BSA) (Bos taurus, UniProt P02769); assay: Reaction with the thiol containing species bovine serum albumin, monitored by ultraviolet absorbance spectra; settings: BSA 0.1 μg, 2.5 μmol compound, 30 minutes at 37° C.
Description: BSA (0.1 μg) was reacted with 2.5 μmol iodomercurio-H2DMP (IM-H2DMP) for 30 minutes at 37° C.

Sequence of bovine serum albumin (BSA) (P02769 25-607): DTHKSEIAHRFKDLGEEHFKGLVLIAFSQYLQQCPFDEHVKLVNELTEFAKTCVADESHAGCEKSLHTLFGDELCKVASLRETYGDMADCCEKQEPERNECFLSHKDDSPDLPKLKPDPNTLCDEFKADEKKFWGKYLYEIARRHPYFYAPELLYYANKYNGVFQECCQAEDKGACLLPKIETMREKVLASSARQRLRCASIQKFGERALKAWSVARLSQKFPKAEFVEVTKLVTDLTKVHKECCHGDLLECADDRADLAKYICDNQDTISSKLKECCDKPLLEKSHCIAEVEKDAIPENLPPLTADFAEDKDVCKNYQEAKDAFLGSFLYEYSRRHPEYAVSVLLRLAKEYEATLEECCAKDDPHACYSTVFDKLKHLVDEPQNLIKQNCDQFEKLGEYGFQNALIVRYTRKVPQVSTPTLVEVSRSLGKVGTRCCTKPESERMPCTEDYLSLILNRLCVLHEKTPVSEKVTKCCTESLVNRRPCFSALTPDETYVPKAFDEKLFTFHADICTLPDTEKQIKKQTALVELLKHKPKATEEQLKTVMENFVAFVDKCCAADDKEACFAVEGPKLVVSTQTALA

CC(=O)[O][Hg][CH2]C1Cc2cc3c(C)c(C#N)c(=O)oc3c(C)c2O1 (centres unmarked) [Compound P6, 3-cyano-acetylmercurio-H2DMP]
ability to detect a protein on a gel via fluorescent reaction product [1]: demonstrated

Cc1cc(=O)oc2c(C)c3c(cc12)CC([CH2][Hg][I])O3 (centres unmarked) [Compound P1, iodomercurio-H2DMP]
change in ultraviolet absorbance spectra (formation of new reaction product) [2]: change in the ultraviolet absorbance spectra indicative of formation of a new reaction product was observed
